Test results published in the supplement of paper PMC10307832.

How the values were obtained:
Assay in all cases: relative viability (nuclei count vs DMSO), 5 days (fraction); higher = more cells survive
[1] = compound: CN1CCN(CC1)C2=CC(=C(C=C2)NC3=NC(=C(S3)C(=O)C4=C(C=CC=C4Cl)Cl)N)OC [XMD14-99] + COc1cccc2cc(-c3nc([C@H]4CC[C@H](C(=O)O)CC4)n4ncnc(N)c34)[nH]c12 [OSI-027] (partner 0.5 µM)
Summary of the method: (§1)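 Lung cancer cell lines were seeded in 1536-well plates and dosed by pin tool the next day, with either a single drug or a fixed anchor-drug dose combined with five library-drug doses (not always all listed) spaced in √10 steps. Five days later, one step fixed the cells and stained their nuclei (final 0.05% Triton X-100, 1% formaldehyde, 1 ug/ml Hoechst), and nuclei were counted on 4× images. Relative viability is the nuclei count in treated wells divided by the count in vehicle wells, and each value is the median of duplicate plates.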

[2] = compound: CN1CCN(CC1)C2=CC(=C(C=C2)NC3=NC(=C(S3)C(=O)C4=C(C=CC=C4Cl)Cl)N)OC [XMD14-99] + O=C(CCCCCCC(=O)Nc1ccccc1)NO [Vorinostat] (partner 1 µM)
Summary of the method: as §1

[3] = compound: N[C@@H]1CCCN(c2c(/C=C3\SC(=O)NC3=O)cccc2-c2ccccc2)C1 [AZD1208] + CC1(C)CCC(c2ccc(Cl)cc2)=C(CN2CCN(c3ccc(C(=O)NS(=O)(=O)c4ccc(N[C@H](CCN5CCOCC5)CSc5ccccc5)c(S(=O)(=O)C(F)(F)F)c4)cc3)CC2)C1 [Navitoclax] (partner 0.5 µM)
Summary of the method: as §1

[4] = compound: N[C@@H]1CCCN(c2c(/C=C3\SC(=O)NC3=O)cccc2-c2ccccc2)C1 [AZD1208] + C[C@]1(O)C[C@@H](c2nc(-c3ccc4ccc(-c5ccccc5)nc4c3)c3c(N)nccn32)C1 [Linsitinib] (partner 1 µM)
Summary of the method: as §1

Cell Line	relative viability ([1]; first compound 0.08 µM)	relative viability ([1]; first compound 0.8 µM)	relative viability ([1]; first compound 2.53 µM)	relative viability ([1]; first compound 8 µM)	relative viability ([2]; first compound 0.08 µM)	relative viability ([2]; first compound 0.8 µM)	relative viability ([2]; first compound 2.53 µM)	relative viability ([2]; first compound 8 µM)	relative viability ([3]; first compound 0.08 µM)	relative viability ([3]; first compound 0.253 µM)	relative viability ([3]; first compound 0.8 µM)	relative viability ([3]; first compound 2.53 µM)	relative viability ([3]; first compound 8 µM)	relative viability ([4]; first compound 0.08 µM)	relative viability ([4]; first compound 0.253 µM)	relative viability ([4]; first compound 0.8 µM)	relative viability ([4]; first compound 2.53 µM)	relative viability ([4]; first compound 8 µM)
201T	0.748	0.729	0.828	0.494	0.962	0.93	0.948	0.815	1.24	1.23	1.25	1.24	1.31	1.02	1.05	0.989	1.01	0.979
A549	–	–	–	–	–	–	–	–	1.24	1.16	1.12	1.18	1.1	0.513	0.553	0.504	0.462	0.512
A-427	0.457	0.421	0.401	0.311	0.882	0.832	0.689	0.612	0.936	0.95	0.892	0.876	0.863	1.12	1.12	1	1.17	1.02
ABC-1	0.431	0.551	0.382	0.291	1.13	0.996	1.01	0.646	–	–	–	–	–	0.808	0.717	0.626	0.747	0.732
BEN	0.29	0.295	0.312	0.264	0.591	0.547	0.595	0.522	0.0677	0.0668	0.0589	0.0576	0.125	0.815	0.806	0.654	0.572	0.46
CAL-12T	0.492	0.68	0.747	0.377	0.685	0.894	0.627	0.613	1.28	1.39	1.08	1.28	0.956	0.721	1.13	0.761	0.86	0.909
COR-L23	0.796	0.724	0.561	0.406	0.409	0.415	0.304	0.181	0.948	1.07	0.931	1.05	0.816	0.84	1.09	0.824	0.825	0.771
COR-L 105	0.701	0.646	0.647	0.409	0.833	0.944	0.662	0.663	0.679	0.745	0.555	1.13	0.682	0.985	0.884	0.972	0.949	0.939
Calu-6	–	–	–	–	–	–	–	–	0.737	0.916	0.906	0.833	0.822	0.86	1.03	0.919	0.967	0.872
ChaGo-K-1	0.554	0.658	0.612	0.472	0.741	0.73	0.68	0.719	1.16	1.05	1.09	0.834	0.785	–	–	–	–	–
EBC-1	–	–	–	–	–	–	–	–	0.317	0.326	0.297	0.334	0.298	0.981	1.08	0.821	0.905	0.764
EKVX	0.653	0.72	0.655	0.586	0.701	0.714	0.655	0.493	0.931	0.995	0.754	0.933	0.944	0.996	1.19	0.917	0.87	1.11
EMC-BAC-2	0.362	0.384	0.313	0.292	0.493	0.585	0.447	0.199	1.17	1.39	1.14	1.17	1.07	0.848	0.818	0.747	0.815	0.796
EPLC-272H	0.311	0.32	0.282	0.263	0.476	0.399	0.401	0.419	1.08	1.24	1.08	1.04	0.897	1.31	1.17	0.995	1.21	1.09
H3255	0.548	0.57	0.535	0.487	0.756	0.74	0.717	0.591	0.511	0.546	0.455	0.462	0.472	1.02	1.05	0.866	0.973	0.891
HARA	0.46	0.426	0.321	0.182	0.537	0.499	0.369	0.397	1.13	1.16	1.2	1.03	1.15	0.948	1.02	0.899	0.964	0.877
HCC-15	0.606	0.622	0.638	0.463	0.839	0.825	0.728	0.587	0.632	0.725	0.55	0.642	0.612	0.811	0.864	0.648	0.793	0.655
HCC-44	0.46	0.493	0.421	0.469	1.12	1.1	1.13	1.04	0.91	1.07	0.94	1.04	0.899	0.634	0.676	0.665	0.672	0.593
HCC-78	0.389	0.339	0.377	0.319	0.404	0.408	0.369	0.382	0.951	0.752	0.672	0.685	0.709	0.513	0.495	0.45	0.439	0.415
HCC-366	0.855	1.05	0.82	0.608	0.42	0.324	0.296	0.218	1.1	0.965	1.02	1.05	0.927	0.626	0.588	0.5	0.558	0.439
HCC-827	0.726	0.68	0.655	0.608	0.929	0.571	0.74	0.701	1.05	1.11	0.984	1.07	0.983	0.965	1.03	1.01	1.01	1.02
HOP-62	0.873	0.877	0.772	0.662	0.668	0.804	0.661	0.441	1.05	0.886	1.05	0.969	1.07	1.06	0.843	1.05	1.11	0.623

Cell Line	relative viability ([1]; first compound 0.08 µM)	relative viability ([1]; first compound 0.8 µM)	relative viability ([1]; first compound 2.53 µM)	relative viability ([1]; first compound 8 µM)	relative viability ([2]; first compound 0.08 µM)	relative viability ([2]; first compound 0.8 µM)	relative viability ([2]; first compound 2.53 µM)	relative viability ([2]; first compound 8 µM)	relative viability ([3]; first compound 0.08 µM)	relative viability ([3]; first compound 0.253 µM)	relative viability ([3]; first compound 0.8 µM)	relative viability ([3]; first compound 2.53 µM)	relative viability ([3]; first compound 8 µM)	relative viability ([4]; first compound 0.08 µM)	relative viability ([4]; first compound 0.253 µM)	relative viability ([4]; first compound 0.8 µM)	relative viability ([4]; first compound 2.53 µM)	relative viability ([4]; first compound 8 µM)
IA-LM	–	–	–	–	0.96	0.728	0.649	0.515	0.812	0.865	0.651	0.621	0.794	0.625	0.827	0.524	0.529	0.69
LC-2-ad	0.845	0.866	0.771	0.679	0.672	0.704	0.646	0.553	0.36	0.356	0.331	0.397	0.489	0.803	0.673	0.833	0.801	0.894
LCLC-97TM1	0.412	0.452	0.555	0.442	0.732	0.661	0.604	0.315	0.369	0.271	–	0.446	0.21	0.156	0.206	–	0.133	0.132
LCLC-103H	0.409	0.417	0.465	0.406	0.786	0.798	0.759	0.664	–	–	–	–	–	1.04	1.09	1.06	1.11	0.891
LK-2	0.19	0.182	0.162	0.179	0.364	0.396	0.548	0.462	0.77	0.523	0.494	0.433	0.347	0.43	0.523	0.302	0.263	0.268
LOU-NH91	0.744	0.7	0.73	0.63	0.947	1.03	0.805	0.725	0.689	0.709	0.648	0.638	0.577	0.953	0.934	0.855	0.949	0.822
LU99A	0.302	0.308	0.297	0.25	0.53	0.462	0.444	0.37	0.805	0.855	0.864	0.712	0.514	0.504	0.5	0.51	0.397	0.432
NCI-H358	0.702	0.813	0.707	0.404	0.686	0.653	0.553	0.309	–	–	–	–	–	0.675	0.604	0.564	0.71	0.605
NCI-H522	0.742	0.742	0.683	0.72	0.809	0.889	0.757	0.956	–	–	–	–	–	–	–	–	–	–
NCI-H650	0.544	0.58	0.464	0.42	0.348	0.455	0.439	0.411	–	–	–	–	–	0.877	0.83	0.784	0.482	0.71
NCI-H661	0.777	0.673	0.498	0.416	0.807	0.768	0.627	0.522	–	–	–	–	–	0.505	0.568	0.519	0.416	0.483
NCI-H1299	–	–	–	–	–	–	–	–	1.1	1.09	1.08	1	1.04	1.03	1.13	0.997	1.01	1.08
NCI-H1563	0.753	0.766	0.733	0.641	–	–	–	–	–	–	–	–	–	1.18	1.19	1.18	1.26	1.16
NCI-H1623	0.434	0.43	0.392	0.396	–	–	–	–	–	–	–	–	–	–	–	–	–	–
NCI-H1648	0.268	0.25	0.231	0.227	0.397	0.287	0.437	0.395	–	–	–	–	–	–	–	–	–	–
NCI-H1650	0.705	0.7	0.49	0.395	0.554	0.558	0.678	0.427	1.07	1.15	1.04	1.02	1.19	–	–	–	–	–
NCI-H1703	–	–	–	–	–	–	–	–	0.98	1.19	0.88	0.878	0.783	0.751	0.56	0.602	0.651	0.508
NCI-H1792	0.71	0.686	0.657	0.413	–	–	–	–	0.678	0.779	0.531	0.645	0.557	0.474	0.648	0.446	0.439	0.467
NCI-H2170	0.709	0.772	0.65	0.621	0.784	0.832	0.741	0.609	0.505	0.664	0.418	0.521	0.251	–	–	–	–	–
NCI-H2342	0.594	0.674	0.752	0.548	0.747	0.703	0.872	0.989	–	–	–	–	–	–	–	–	–	–
SW 900	0.532	0.727	0.548	0.366	0.509	0.667	0.489	0.432	–	–	–	–	–	–	–	–	–	–
